Results published in patent US20120034210A1, “COMPOSITIONS FOR POTENTIATING APOPOSIS SIGNALS IN TUMOUR CELLS” (INSTITUT BERGONIE, priority 2008, published 2012).
“Also recorded” adds a separate entry of the source. Peptide text beside a SMILES is read from it. * marks the point of attachment. Cbz = O=C(OCc1ccccc1)*

Columns and labels:
[1] = system: DISC macro-complex (Fas/FADD/Caspase-8); assay: DISC formation: Fas immunoprecipitation and Western blot; format: cell-based, human; conditions: for recruitment of FADD and DISC formation: non-permeant chelators lowering extracellular calcium
Experimental: Cells were incubated with 1 μg/ml APO1-3 for 30 minutes at 4° C. After washing, cells were incubated for 15 minutes at 4° C. (0 minutes) or at 37° C. (15 minutes) and then lysed for 30 minutes at 4° C. in a lysis buffer (25 mM HEPES pH 7.4, 1% Triton X-100, 150 mM NaCl, 2 mM EDTA, a cocktail including protease inhibitors (Sigma)). The lysed cells were then centrifugated for 15 minutes at 15000 rpm in order to eliminate genomic DNA, and the supernatant was kept. The sepharose beads which were coupled with protein A were added to the lysate and the mixture was incubated for 2 hours. The beads were recovered, washed intensively and the immunoprecipitated proteins were re-suspended in a denaturing and reducing buffer (0.01M Tris-HCl pH6.8, 10% glycerol (v/v), 85 mM sodium dodecyl sulfate (SDS), 5% (v/v) […] and 0.005% (w/v) bromophenol blue) then heated at 100° C. for 5 minutes. The samples were deposited in an acrylamide/Bisacrylamide gel and separated by electrophoresis. The proteins were transferred from the gel into a nitrocellulose membrane using a semi-dry medium transfer technique for 2 hours at constant amperage (0.8 mA/cm^2). […] After transfer, the nitrocellulose membrane was saturated with proteins for 30 minutes with a TBST buffer (50 mM Tris pH=8, 0.15M sodium chloride, 0.05% (v/v) Tween-20) containing 5% (w/v) skimmed powdered milk (TBSTM). After washing with TBST, the membrane was incubated for 2 hours with the primary antibody in TBST. The membrane was washed intensively then incubated for one hour with TBST containing the secondary peroxidase-coupled antibody. […] This solution contained a substrate metabolised by peroxidase to yield a luminescent compound, which allowed marking a radiographic film (Amersham).

[2] = system: T and B leukemia/lymphoma cell lines and activated PBLs treated with FasL; assay: Fas/CD95-mediated cell death (MTT test); format: cell-based, human; conditions: for sensitivity to the CD95-mediated apoptotic signal (% cell death): down-modulation of extracellular calcium, T and B-cell lines, vs untreated
Experimental: 2 to 4.10^4 cells were deposited in wells in a 96-well plate. The cells were incubated, in the presence of the different reactants for the times specified, at 37° C. in a final volume of 100 or 200 μl.
The MTT test enabled to measure the activity of a mitochondrial enzyme, the dehydrogenase succinate which transforms MTT (or 3-(4,5-dimethylthiazol-2-yl)-2,5-diphenyltetrazolium) bromide originally yellow in colour and soluble, into blue formazan crystals, insoluble in aqueous phase. Upon completion of the different treatments, the living cells were quantified by adding in each well 15 μl PBS (Phosphate Buffered Saline) containing 5 mg/ml MTT. […] Spectrophotometric reading of absorbance was done at 570 nm. The measurement of the optical density is directly proportional to the number of living cells and the percentage of cell death was calculated with the following formula: 100-[(DO treated cells/DO non-treated cells)*100].

[3] = system: Raji, BL2, Jurkat cell lines and activated PBL; assay: Apoptosis % by loss of mitochondrial membrane potential; format: cell-based, human; conditions: for induction of cell death via DR4/DR5 with calcium chelation: BL2 cell line, 24 h, prior incubation 15 minutes BAPTA-AM 1 μM
Experimental: 2 to 4.10^4 cells were deposited in wells in a 96-well plate. The cells were incubated, in the presence of the different reactants for the times specified, at 37° C. in a final volume of 100 or 200 μl. The apoptotic cells were identified in the cellular populations by measuring mitochondrial de-polarisation. […] These potentiometric probes allowed monitoring the variations of the mitochondrial membrane potential. […] Following cell treatment with the different drugs, the former were placed in the presence of TMRM or DIOC6 at 10 nM concentration, for 20 minutes at 37° C. then the fluorescence of the cells was analysed by flow cytometry.

Raji cells = assay: Raji B lymphoma tumour growth in Rag2-/-γ-/- mice; format: in vivo; conditions: Raji s.c.; single agent; Rituximab 2 mg/kg, Zoledronate 4 mg/kg
Experimental: The implantation of the tumours was done subcutaneously in Rag2−/−γ−/− mice flank aged from 5 to 7 weeks. Following implantation of the tumours, the mice were divided in groups of 8 to 10 animals for each treatment. The size of the tumour was assessed every day by measuring its width (w) and its length (I). Its volume was calculated according to the formula: V=lw^2/2. At the end of the experiment, the animals were sacrified, the tumour weight was measured.
From 10^6 Raji cells were implanted subcutaneously in mice flank. The effects of Rituximab alone, of Zoledronate alone, are assessed on the growth of tumours. Rituximab (2 mg/kg) was delivered 3 times a week, Zoledronate was delivered 1 time a week.

[4] = system: intracellular calcium concentration; assay: Intracellular Ca2+ concentration, indo-1 (micro)spectrofluorimetry; format: cell-based, human
Experimental: Principle: [Ca^2+]i was measured by microspectrofluorimetry using a calcium sensitive fluorescent probe: indo-1. When excited at 360 nm wavelength, the so-called monoexcitation/double emission indo-1 probe transmitted back in a spectrum ranging from 400 to 500 nm. Binding of Ca^2+ to indo-1 caused displacement of the emission spectrum after excitation. The emission maximum in the unbound form was located around 480 nm. The emission of the complexed form was around 405 nm. An increase of calcium concentration thus caused the emission to increase to 405 nm and the emission to decrease to 480 nm. The ratio of both fluorescence intensities allowed to be independent from the quantity of the probe and to determine the [Ca^2+]i according to the Grynkiewicz equation:
[Ca^2+]i(nM)=Kd.β×(R−Rmin)/(Rmax−R)
Rmax, Rmin and Kd. β were determined by combining electrophysiology (patch clamp) and spectrofluorimetry. Rmax was determined by placing in the patch pipette a medium containing 10 mM CaCl2. Rmin was obtained by placing as an intrapipette solution a calcium-deprived medium (10 mM EGTA).
The cells were then rinsed with HBSS (800 rpm centrifugation for 2 minutes) and placed in an observation chamber on a glass coverslip. […] The excitation light is supplied by a Xenon lamp (100W). […] The substances to be tested were applied using a glass pipette positioned at some twenty μm of the studied cell and connected to a pneumatic system.
The principle as well as the loading of the cells were identical with the measurement on single cells. In such a case, approx. 40,000 cells were placed in a quartz tub under constant agitation. The tub was then placed in a Hitachi spectrofluorimeter whereof the excitation monochromator was set to 350 nm. […] The signals were transmitted to a computer via an analogue/digital converter. So as to be able to apply the Grynkiewicz equation (see above) and translate the fluorescence ratios measured in calcium values, the calibration parameters were entered into the software. The substances to be tested were applied directly in the tube under constant agitation.

Molecule: O=C(O)CN(CC(=O)O)c1ccccc1OCCOc1ccccc1N(CC(=O)O)CC(=O)O [BAPTA, 1,2-bis(o-aminophenoxy)ethane-N,N,N′,N′-tetraacetic acid]
- recruitment of FADD and DISC formation ([1]; H9 cells, CD95 stimulation): enhanced the recruitment of FADD and the DISC formation; also recorded: enhanced recruitment of FADD as well as enhanced DISC formation
- sensitivity to the CD95-mediated apoptotic signal (% cell death) [2]: increased the sensitivity of T and B-cell lines to the CD95-mediated apoptotic signal

Molecule: O=C(O)CN(CCOCCOCCN(CC(=O)O)CC(=O)O)CC(=O)O [EGTA, glycol-bis(2-aminoethylether)-N,N,N′,N′-tetraacetic acid]
- recruitment of FADD and DISC formation ([1]; H9 cells, CD95 stimulation): enhanced the recruitment of FADD and the DISC formation; also recorded: enhanced recruitment of FADD as well as enhanced DISC formation
- sensitivity to the CD95-mediated apoptotic signal (% cell death) [2]: increased the sensitivity of T and B-cell lines to the CD95-mediated apoptotic signal

Molecule: CC(C)C[C@@H](C=O)NC(=O)[C@H](CC(C)C)NC(=O)[C@H](CC(C)C)NC(=O)OCc1ccccc1 [MG132] (Cbz-Leu-Leu-Leu-aldehyde)
- induction of cell death via DR4/DR5 with calcium chelation [3]: potentiated by calcium chelation

Molecule: Clc1ccc(C(c2ccc(Cl)cc2)n2cc[n+](CC(OCc3ccc(Cl)cc3Cl)c3ccc(Cl)cc3Cl)c2)cc1 (stereo not shown) [calmidazolium]
- effect on CD95-mediated apoptotic signal ([2]; calmodulin antagonist or CaMKII inhibitory peptide): did not alter the CD95-mediated apoptotic signal

Molecule: CNCCC(Oc1ccc(C(F)(F)F)cc1)c1ccccc1 (stereo not shown) [fluoxetine]
- induction of cell death via DR4/DR5 with calcium chelation [3]: potentiated by calcium chelation

Molecule: C[C@H](CCC(=O)O)C[C@H](C)C[C@H](C)C(=O)/C=C(\O)[C@H](C)C[C@H](C)C/C=C/[C@@H](C)[C@@H](O)[C@@H](C)[C@@H](O)C[C@@H]1CC[C@@](C)([C@H]2CC[C@@](C)([C@@H](C)O)O2)O1 [ionomycine]
- DISC formation / FADD recruitment upon CD95 stimulation ([1]; H9, Jurkat, activated PBTs, non-cytotoxic concentrations, vs untreated cells): prevented the recruitment of FADD to CD95 and the DISC formation; also recorded: absence of FADD recruitment and DISC formation
- formation of the DISC macro-complex ([1]; H9 cells, BAPTA-AM 1-10 μM or ionomycine 1 μM pre-incubation, then anti-Fas APO1-3 1 μg/ml 15 min 37° C., vs untreated cells): interfered with the formation of the DISC complex
- FADD binding and activation of caspase-8 ([1]; H9 cells, ionomycine 1 μM, anti-Fas APO1-3): decreased the FADD binding and the activation of caspase-8

Molecule: Oc1ccc(C=Cc2cc(O)cc(O)c2)cc1 [resveratrol]
- induction of cell death via DR4/DR5 with calcium chelation [3]: potentiated by calcium chelation

Molecule: C1CCC[C@H]2CCCN3CC[C@@H](CCCCCC[C@@H]4CCCN5CC[C@@H](CC1)O[C@@H]45)O[C@@H]23 [xestospongin C]
- FADD binding to CD95 ([1]; IP3-R antagonist, CD95 stimulation): significantly promoted FADD binding to CD95; also recorded: significant increase in FADD binding to CD95

Molecule: Rituximab: anti-CD20 monoclonal antibody
- death signalling and apoptosis induced by Rituximab in low calcium medium ([3]; Raji, defined medium 0.5 mM vs 4 mM calcium): allowed potentiating the death signalling and apoptosis
- cell death signal induced by Rituximab with added extracellular calcium ([3]; Raji, medium 3 mM vs 0.8 mM calcium): inhibited the cell death signal
- tumour mass vs vehicle (Raji cells): not significantly affected

B1: TRAIL: soluble recombinant human TRAIL (TNF-related Apoptosis-Inducing Ligand), binds DR4 or DR5 (protein, UniProt P50591 39-281, looked up)
extracellular domain: TNELKQMQDKYSKSGIACFLKEDDSYWDPNDEESMNSPCWQVKWQLRQLVRKMILRTSEETISTVQEKQQNISPLVRERGPQRVAAHITGTRGRSNTLSSPNSKNEKALGRKINSWESSRSGHSFLSNLHLRNGELVIHEKGFYYIYSQTYFRFQEEIKENTKNDKQMVQYIYKYTSYPDPILLMKSARNSCWSKDAEYGLYSIYQGGIFELKENDRIFVSVTNEHLIDMDHEASFFGAFLVG
modifications: extracellular domain
- induction of cell death via DR4/DR5 with calcium chelation [3]: potentiated by calcium chelation

B2: CD95L: soluble CD95 ligand (Fas ligand), gp190-CD95L generated by Legembre et al. (protein, UniProt P48023 103-281, looked up)
extracellular domain: QLFHLQKELAELRESTSQMHTASSLEKQIGHPSPPPEKKELRKVAHLTGKSNSRSMPLEWEDTYGIVLLSGVKYKKGGLVINETGLYFVYSKVYFRGQSCNNLPLSHKVYMRNSKYPQDLVMMEGKMMSYCTTGQMWARSSYLGAVFNLTSADHLYVNVSELSLVNFEESQTFFGLYKL
modifications: extracellular domain gp190 fusion
- intracellular calcium peak upon CD95L ([4]; H9 and Jurkat, rapid and transient, basal level 100 to 150 nM): up to 700 nM
- calcium response to CD95L ([4]; Jurkat CD95-Q257K vs parental cell line): the calcium response remained unaltered
- increase in [Ca2+]i upon CD95L ([4]; cells devoid of FADD, caspase-8 or caspase-8 and -10): did not display any modification of the increase in [Ca^2+]i
